# According to US20260166175A1, “FABRICATION OF CYCLODEXTRIN PARTICLES AND CRYOGELS AND METHODS OF USING AND MAKING THEREOF” (University of South Florida, priority 2022, published 2026):
# Columns and labels:
# L929 fibroblasts = experiment: Cytotoxicity (MTT cell viability) on L929 fibroblasts; format: cell-based; details: 1.0 mg/mL, 24 h incubation
# Description: For the biocompatibility analysis, L929 fibroblasts were cultured in an air-humidified incubator (5% CO2 atmosphere) in DMEM supplemented with 10% fetal bovine serum (FBS) at up to 70% cell confluency. The cytotoxicity analysis of CD-based materials was performed by MTT assay which determines the metabolic activity of living cells.
# The L929 fibroblast cell suspension was adjusted to a density of 5×10^5 cells mL^−1 and gently homogenized. Then, 100 µL of this cell suspension was seeded onto wells on a 96-well plate. The well-plate was incubated at 37° C. under 5% CO2 in an air-humidified incubator for 24 h. After adherence of the fibroblasts, the culture medium was removed from the wells and 100 μL of CD-based particle suspension in culture medium DMEM at different concentrations between 50 and 1000 μg/mL was added to the cells. The plate was incubated at 37° C. under 5% CO2 in an air-humidified incubator for 24 h more. At the end of the incubation, the medium was removed from the wells, the cells were washed with phosphate-buffered saline solution (PBS) two times. After this step, 100 μL of MTT (Tetrazolium dye) at 0.5 mg/mL concentration was added to each well. The plate was incubated at room temperature in the dark for 4 h. Then, MTT solution was removed from the wells and 200 μL of DMSO was placed into the wells to dissolve the blue formazan crystals. Finally, the absorbance values were measured at 590 nm with a plate reader (Thermo Scientific™ Multiskan™). The absorbance value of control group was accepted as 100% viability and the decrease in cell viability % was estimated based on the absorbance values of the wells treated with CD-based materials by the following equation, Cell viability
# Where Amaterial is the absorbance value of the cells interacting with CD-based materials and Acontrol is the absorbance value of the untreated cells as control. All assays were carried out in triplicate and the results are given with standard deviations.
# Human blood = experiment: Blood clotting assay; details: 1 mg/mL
# Description: Hemolysis and blood clotting assays were performed to investigate the blood compatibility of linear α-CD, β-CD, and γ-CD and their particle forms. Human blood was obtained from healthy volunteers and approved by the Clinical Research Ethics Committee of Canakkale Onsekiz Mart University (2011-KAEK-27/2022-2200063689) and placed into tubes containing EDTA. Before the analysis, all solutions were preheated to 37° C.
# For the blood clotting assay, 64 μL of 0.2 M CaCl2 aqueous solution was mixed with 810 μL of blood containing EDTA and immediately 270 μL of this blood was covered with 10 mg of linear CD or CD particle. After 10 min, 10 mL of DI water was slowly added into the tubes and centrifuged at 100 g for 1 minute. Then 10 mL of supernatant solution containing non-clotting blood was taken from the tube and diluted with 40 mL of DI water. In the separation tube, 250 μL of the blood containing EDTA was dispersed in 50 mL of DI water as a control. The blood solution was incubated at 37.5° C. in a water bath for 1 h and then, the absorbance value of the supernatant was measured at 542 nm by using UV-Vis spectroscopy. The blood clotting index of the linear CD or CD particles was evaluated from the following equation.
# Where Amaterial is the absorbance value of the blood solution interacted with the CD-based materials and Acontol is the absorbance value of the blood solution without the CD-based materials as a control. All assays were carried out in triplicate and the results are given with standard deviations.
# [1] = Bisphenol A or curcumin loading into p(CD) particles (adsorption); format: physicochemical; details: for absorbed BPA: guest BPA; for absorbed CUR: guest CUR
# Description: Then, BPA-loaded CD-based particles were washed with ethanol-water (1:1) mixture one time by centrifugation at 10 000 rpm for 10 min. The BPA loaded CD-based particles were dried by freeze dryer for 48 h. Similarly, curcumin (CUR) was loaded into p(α-CD), p(β-CD), and p(γ-CD) particles by using the same procedure as described above. […] The CUR-loaded p(CD) materials were dried by freeze dryer for 48 h. The absorbance value of the BPA/CUR solutions before and after the loading processes were measured by using UV-Vis spectroscopy (SP-UV300SRB, Spectrum, China) at 275 nm and 425 nm for BPA and CUR, respectively against the previously constructed corresponding calibration curves for BPA and CUR prepared in ethanol-water mixtures. The ethanol-water solution was prepared at 1:7 and 3:2 volume ratios for BPA and CUR, respectively.
blood clotting index (Human blood),absorbed BPA [1],absorbed CUR [1],Compound,cell viability (L929 fibroblasts)
93.6±2.2%,0.158 mmol/mmol,0.482 mmol/mmol,"OCC1OC2OC3C(CO)OC(OC4C(CO)OC(OC5C(CO)OC(OC6C(CO)OC(OC7C(CO)OC(OC1C(O)C2O)C(O)C7O)C(O)C6O)C(O)C5O)C(O)C4O)C(O)C3O (stereo not drawn) [α-CD, α-cyclodextrin]",90±7%
92.3±2.3%,0.279 mmol/mmol,0.398 mmol/mmol,"OCC1OC2OC3C(CO)OC(OC4C(CO)OC(OC5C(CO)OC(OC6C(CO)OC(OC7C(CO)OC(OC8C(CO)OC(OC1C(O)C2O)C(O)C8O)C(O)C7O)C(O)C6O)C(O)C5O)C(O)C4O)C(O)C3O (stereo not drawn) [β-CD, β-cyclodextrin]",89±14%
98.4±0.7%,0.222 mmol/mmol,0.416 mmol/mmol,"OCC1OC2OC3C(CO)OC(OC4C(CO)OC(OC5C(CO)OC(OC6C(CO)OC(OC7C(CO)OC(OC8C(CO)OC(OC9C(CO)OC(OC1C(O)C2O)C(O)C9O)C(O)C8O)C(O)C7O)C(O)C6O)C(O)C5O)C(O)C4O)C(O)C3O (stereo not drawn) [γ-CD, γ-cyclodextrin]",95±14%
